{"source": "paper PMC8526204", "about": "“Effects of Sinapic Acid Combined with Cisplatin on the Apoptosis and Autophagy of the Hepatoma Cells HepG2 and SMMC-7721” (Evidence-based Complementary and Alternative Medicine : eCAM, 2021)", "key": {"HepG2 cells [1]": {"tested_on": "HepG2 cells", "test": "Cell cycle analysis by flow cytometry (PI), HepG2", "assay_type": "cell-based, human", "details": "72 h, control 12.79 ± 0.89%", "method": "The HepG2 and SMMC-7721 cells were seeded in a 6-well plate (5 × 10^5 cells/well). The cells were photographed using the inverted microscope (Eclipse Ti-S, Nikon Co., Ltd., Japan) to observe the morphological changes. The cells were collected, treated with 70% precooled ethanol (1 mL) in an ice bath, blew and mixed well, and then, fixed overnight at 4°C. The cells were stained with 25 µL PI staining solution and 10 µL RNase staining solution, according to the manufacturer's protocol, and the cell cycle was analyzed by flow cytometry (Attune NxT, Thermo Fisher Scientific Inc., USA)."}, "HepG2 cells [2]": {"tested_on": "HepG2 cells", "test": "Western blot of apoptosis- and autophagy-related proteins, HepG2", "assay_type": "cell-based, human", "method": "(§1) The HepG2 and SMMC-7721 cells treated with Sa/DDP were collected and using radioimmunoprecipitation assay buffer to lyse the cells at 4°C for 30 min to extract the total protein. The protein concentration of the samples was measured using the BCA protein assay kit, after centrifugation at 12,000 g at 4°C for 5 min, and denatured by boiling at 100°C. An equal amount of protein (30 μg) was resolved using the sodium dodecyl sulfate-polyacrylamide gel (10–12%) electrophoresis for 1.5 h. The proteins were then transferred onto a membrane of nitrocellulose and blocked using 5% skimmed milk for 2 h at 20°C, followed by rinsing thrice using PBS containing 0.1% Tween 20 (PBS-T), for 5 min each. Furthermore, the […] were incubated in diluted anti-Bax, Bcl-2 PARP, c-PARP, a-caspase-3, caspase-3, p62, Beclin-1, Atg5, LC3I/II, and β-actin according to 1 : 1,000, incubated overnight at 4°C, and subsequently washed repeatedly the next day. The membranes were incubated with a secondary antibody (1 : 3000) for 1 h at ambient temperature and washed repeatedly. After washing the membrane, it was developed by the FluorChem M image acquisition system (Protein Simple Inc., USA). The quantification was performed (where appropriate) using the ImageJ software (Rawak Software Inc., Stuttgart, Germany)."}, "HepG2 cells [3]": {"tested_on": "HepG2 cells", "test": "MTT cell viability assay, HepG2", "assay_type": "cell-based, human", "details": "for IC50: Homo sapiens, HepG2, Sa treatment, MTT", "method": "(§2) The cells HepG2, SMMC-7721, and HL-7702 were seeded in 96-well plates containing 6,000 cells per well, supplemented with various concentrations of Sa (0–2,000 μM) and DDP (5 μM). After the cells were incubated at 37°C for 24, 48, and 72 h, they were cultured with 20 µL MTT (5 mg/mL) for 4 h. The formazan crystals were dissolved by adding 150 µL of dimethyl sulfoxide, followed by recording the absorbance at 490 nm using a microplate reader (Varioskan LUX, Thermo Fisher Scientific Inc., USA) and calculating the percentage of cell viability."}, "[4]": {"test": "MTT cell viability assay, HepG2", "assay_type": "cell-based, human", "details": "human, HepG2 cells", "method": "as §2"}, "SMMC-7721 cells [5]": {"tested_on": "SMMC-7721 cells", "test": "Western blot of apoptosis- and autophagy-related proteins, SMMC-7721", "assay_type": "cell-based, human", "method": "as §1"}, "HepG2 cells [6]": {"tested_on": "HepG2 cells", "test": "Colony formation assay, HepG2", "assay_type": "cell-based, human", "details": "HepG2, Sa 600 μM, 72 h then 10 d", "method": "(§3) The HepG2 and SMMC-7721 cells were seeded in a 12-well plate (200–300 cells/well). […] Then, the recovery medium was added to the complete medium (1 mL) and cultured for 10 d. Subsequently, these cells were fixed in 4% paraformaldehyde solution (1 mL) at 37°C for 2 h, stained with 0.5% crystal violet staining solution (0.5 mL) for 15 min, and photographed, and the numbers of colonies formed were tabulated. The findings were expressed as a percentage of the number of colonies in each experimental group (assuming that the control group was 100%). The ImageJ software (Rawak Software Inc., Stuttgart, Germany) was used for analyzing the data."}, "SMMC-7721 cells [7]": {"tested_on": "SMMC-7721 cells", "test": "Annexin V-FITC/PI apoptosis assay, SMMC-7721", "assay_type": "cell-based, human", "details": "SMMC-7721, Sa 600 μM, 72 h; control 3.67 ± 0.34%", "method": "(§4) The HepG2 and SMMC-7721 cells were seeded into a 6-well plate (1 × 10^5 cell/well), and after 72 h, the cells in each group were treated with trypsin and collected. The cells were rinsed twice in PBS, and a concentration of 5 × 10^5 cells/mL was treated with a binding buffer. According to the manufacturer's protocol, the cells were stained with 5 µL PI staining solution and 10 µL Annexin V-FITC staining solution with incubation for 30 min in the dark."}, "HepG2 cells [8]": {"tested_on": "HepG2 cells", "test": "Transwell migration assay, HepG2", "assay_type": "cell-based, human", "details": "HepG2, Sa 600 μM, 24 h", "method": "(§5) The lower section contained 700 μL of DMEM (including 10% FBS) along with the drug to be loaded. Briefly, 3 × 10^4 cells were added to the upper chamber while the lower chamber was filled with 10% FBS after incubating the cells for 24 h. The cells were cultured at 37°C for 24 h, fixed with a 4% paraformaldehyde solution, and stained with 0.5 mL of crystal violet. Subsequently, the cells in the upper chambers were removed by gently dabbing them with cotton swabs. These cells were photographed, and the invaded cells were observed using an inverted microscope (DM4 B, Leica Inc., Germany). Finally, the stained cells were counted in five randomly chosen fields under the microscope for further analysis."}, "SMMC-7721 cells [9]": {"tested_on": "SMMC-7721 cells", "test": "MTT cell viability assay, SMMC-7721", "assay_type": "cell-based", "details": "Homo sapiens, SMMC-7721, Sa treatment", "method": "as §2, with “After” for “The cells HepG2, SMMC-7721, and HL-7702 were seeded in 96-well plates containing 6,000 cells per well, supplemented with various concentrations of Sa (0–2,000 μM) and DDP (5 μM). After”"}, "HL-7702 cells": {"tested_on": "HL-7702 cells", "test": "MTT cell viability assay, normal liver HL-7702", "assay_type": "cell-based, human", "details": "for IC50: Homo sapiens, L02, HL-7702, Sa treatment, MTT", "method": "as §2, with “After” for “The cells HepG2, SMMC-7721, and HL-7702 were seeded in 96-well plates containing 6,000 cells per well, supplemented with various concentrations of Sa (0–2,000 μM) and DDP (5 μM). After”"}, "HepG2 cells [10]": {"tested_on": "HepG2 cells", "test": "Annexin V-FITC/PI apoptosis assay, HepG2", "assay_type": "cell-based, human", "details": "HepG2, Sa 600 μM, 72 h; control 13.06 ± 1.04%", "method": "as §4"}, "SMMC-7721 cells [11]": {"tested_on": "SMMC-7721 cells", "test": "Transwell migration assay, SMMC-7721", "assay_type": "cell-based, human", "details": "SMMC-7721, Sa 600 μM, 24 h", "method": "as §5"}, "SMMC-7721 cells [12]": {"tested_on": "SMMC-7721 cells", "test": "Colony formation assay, SMMC-7721", "assay_type": "cell-based, human", "details": "SMMC-7721, Sa 600 μM, 72 h then 10 d", "method": "as §3"}, "[13]": {"details": "HepG2, HCQ 40 μM pretreatment 1 h then Sa 600 µM/DDP 5 µM 72 h"}, "[14]": {"details": "HepG2, Sa 600 μM, 72 h, vs control"}, "[15]": {"details": "HepG2, Sa 600 μM, 72 h, western blot"}, "[16]": {"details": "SMMC-7721, Sa 600 μM, 72 h, vs control"}, "[17]": {"details": "HepG2, Z-VAD-FMK 20 µM pretreatment 1 h then Sa 600 µM/DDP 5 µM 72 h"}}, "note": "Structures can show the parent of a compound that is named as a salt. Where two headings read alike, the source gives them in different places. Peptide text beside a SMILES is read from it. * marks the point of attachment. Cbz = O=C(OCc1ccccc1)*; CH2F = FC*"}
{"molecule": "N.N.[Cl][Pt][Cl]", "note": "[DDP, Cisplatin]", "values": [{"measurement": "percentage of cells in the G2/M phase", "setting": "HepG2 cells [1]; HepG2, DDP 5 μM", "result": "15.40 ± 1.23", "unit": "%"}]}
{"molecule": "CCN(CCO)CCCC(C)Nc1ccnc2cc(Cl)ccc12", "note": "(stereo not shown) [HCQ, Hydroxychloroquine sulfate, reference compound]", "values": [{"measurement": "a-caspase-3 protein expression increase compared to Sa/DDP treatment", "setting": "HepG2 cells [2]; [13]", "result": 0.34, "unit": "times"}, {"measurement": "reduction of cell viability compared to Sa/DDP", "setting": "HepG2 cells [3]; [13]", "result": "19.07 ± 4.70", "unit": "%"}, {"measurement": "viability at 1 h, 40 μM", "setting": "[4]; HepG2, HCQ 40 μM pretreatment 1 h, no Sa/DDP, untreated 100.00 ± 19.04%", "result": "98.3 ± 18.7", "unit": "%"}, {"measurement": "a-caspase-3 protein expression increase compared to Sa/DDP treatment", "setting": "SMMC-7721 cells [5]; SMMC-7721, HCQ 40 µM pretreatment 1 h then Sa 600 µM/DDP 5 µM 72 h", "result": 0.73, "unit": "times"}]}
{"molecule": "COc1cc(/C=C/C(=O)O)cc(OC)c1O", "note": "[Sa, Sinapic acid]", "values": [{"measurement": "Atg5 protein expression increase", "setting": "HepG2 cells [2]; [14]", "result": 2.9, "unit": "fold"}, {"measurement": "Beclin-1 protein expression increase", "setting": "HepG2 cells [2]; [14]", "result": 4.8, "unit": "fold"}, {"measurement": "p62 protein expression decrease", "setting": "HepG2 cells [2]; [14]", "result": 2.3, "unit": "fold"}, {"measurement": "cleaved PARP protein increase vs control", "setting": "HepG2 cells [2]; [15]", "result": 4.3, "unit": "times"}, {"measurement": "cleaved caspase-3 protein increase vs control", "setting": "HepG2 cells [2]; [15]", "result": 13.6, "unit": "times"}, {"measurement": "proliferation activity (colony formation, control = 100%)", "setting": "HepG2 cells [6]", "result": "71.46 ± 2.23", "unit": "%"}, {"measurement": "IC50", "setting": "HepG2 cells [3]; 24 h, read-out: IC50 24 h", "result": 1800, "unit": "µM"}, {"measurement": "IC50", "setting": "HepG2 cells [3]; 48 h, read-out: IC50 48 h", "result": 1380, "unit": "µM"}, {"measurement": "IC50", "setting": "HepG2 cells [3]; 72 h, read-out: IC50 72 h", "result": 794, "unit": "µM"}, {"measurement": "viability at 72 h, 600 µM", "setting": "[4]; HepG2, Sa 600 µM, 72 h", "result": "71.3 ± 4.08", "unit": "%"}, {"measurement": "apoptosis rate", "setting": "SMMC-7721 cells [7]", "result": "10.74 ± 0.75", "unit": "%"}, {"measurement": "decrease of the migration rate", "setting": "HepG2 cells [8]", "result": "41.52 ± 8.80", "unit": "%"}, {"measurement": "IC50", "setting": "SMMC-7721 cells [9]; 24 h, read-out: IC50 24 h", "result": 2580, "unit": "µM"}, {"measurement": "IC50", "setting": "SMMC-7721 cells [9]; 48 h, read-out: IC50 48 h", "result": 1620, "unit": "µM"}, {"measurement": "IC50", "setting": "SMMC-7721 cells [9]; 72 h, read-out: IC50 72 h", "result": 1350, "unit": "µM"}, {"measurement": "inhibitory effect on normal liver cells", "setting": "HL-7702 cells; HL-7702, MTT", "result": "not pronounced"}, {"measurement": "IC50", "setting": "HL-7702 cells; 24 h, read-out: IC50 24 h", "result": 5060, "unit": "µM"}, {"measurement": "IC50", "setting": "HL-7702 cells; 48 h, read-out: IC50 48 h", "result": 4430, "unit": "µM"}, {"measurement": "IC50", "setting": "HL-7702 cells; 72 h, read-out: IC50 72 h", "result": 4020, "unit": "µM"}, {"measurement": "apoptosis rate", "setting": "HepG2 cells [10]", "result": "36.00 ± 2.52", "unit": "%"}, {"measurement": "percentage of cells in the G2/M phase", "setting": "HepG2 cells [1]; HepG2, Sa 600 μM", "result": "22.60 ± 2.26", "unit": "%"}, {"measurement": "decrease of the migration rate", "setting": "SMMC-7721 cells [11]", "result": "49.80 ± 5.78", "unit": "%"}, {"measurement": "Atg5 expression increase", "setting": "SMMC-7721 cells [5]; [16]", "result": 4.7, "unit": "times"}, {"measurement": "Beclin-1 expression increase", "setting": "SMMC-7721 cells [5]; [16]", "result": 2.5, "unit": "times"}, {"measurement": "p62 expression decrease", "setting": "SMMC-7721 cells [5]; [16]", "result": 1.7, "unit": "times"}, {"measurement": "proliferation activity (colony formation, control = 100%)", "setting": "SMMC-7721 cells [12]", "result": "72.90 ± 1.29", "unit": "%"}]}
{"molecule": "COC(=O)C[C@H](NC(=O)[C@H](C)NC(=O)[C@@H](NC(=O)OCc1ccccc1)C(C)C)C(=O)CF", "note": "[Z-VAD-FMK, reference compound] (Cbz-Val-Ala-Asp(OMe)-CH2F)", "values": [{"measurement": "LC3II protein expression increase compared to group without Z-VAD-FMK", "setting": "HepG2 cells [2]; [17]", "result": "45.30 ± 2.05", "unit": "%"}, {"measurement": "caspase protein lysis decrease compared to group without Z-VAD-FMK", "setting": "HepG2 cells [2]; [17]", "result": "25.22 ± 1.22", "unit": "%"}, {"measurement": "cell viability", "setting": "HepG2 cells [3]; HepG2, Z-VAD-FMK 20 μM pretreatment 1 h, no Sa/DDP, untreated 100.00 ± 19.04%", "result": "100.66 ± 12.14", "unit": "%"}]}
